Reference: patent US12565494B2, “Inhibitors of human respiratory syncytial virus and metapneumovirus” (priority 2022, dated 2026)
pEC50: −log10 of the molar value. Like-named read-outs stand apart in the source and are kept apart here.

Tests used:
RSV-A2-GFP virus = assay: microbe, parasite or virus in culture; type: cell-based, Human Respiratory Syncytial Virus; conditions: Calu-1 cells, RSV-A2-GFP MOI=1.2, 96 hrs, GFP-expressing cells counted
Method: To set up the assay, ARF vials were thawed in a 37° C. water bath and a control compound was resuspended in assay media DMEM (Dulbecco's Modified Eagle Medium) containing 2% FBS, 100 U/ml Penicillin-Streptomycin.
GFP sequence was derived from pJTI™ R4 Dest CMV N-EmGFP pA Vector (Invitrogen) and was cloned into the intergenic sequence between wild-type RSV-A2 P and M genes using standard recombineering techniques. Recombinant RSV-A2-GFP was propagated in Hep2 cells (human cells contain HeLa marker chromosomes and were derived via HeLa contamination, ATCC CCL-23) with a Multiplicity of Infection (MOI) of 0.1. Virus was harvested 3 days after infection by collecting all culture material and then freeze-thawing the mixture for 5 minutes. Working virus stocks were generated by thawing frozen viral cultures in 37° C. water bath, which were centrifuged at 218 g for 15 min at 4° C. 1/10 of 10×SPG (Biological Industries 06-3061-01-5A) were added and then mixed. The supernatant was aliquoted, frozen in liquid nitrogen, and then transferred to a −80° C. freezer for storage. Virus titer was determined by automated plaque assay in HEp-2 cells following methods described previously (Wen Z. et al.; 2019).
Calu-1 cells were purchased from ATCC (Cat #HTB-54) and were expanded in growth media (DMEM containing 10% FBS, 100 U/ml Penicillin-Streptomycin). To make ARF, cell culture media was removed and discarded and the cell layer was briefly rinsed with PBS to remove serum. 2.5 mL of TrypLE Express solution were added and cells incubated until dislodged, to which growth media was added and the cells were resuspended by gentle pipetting. Cells were counted for concentration and viability as determined by ViCell. Cells were centrifuged at RT, 300 g for 5 minutes to pellet cells. The supernatant was gently aspirated and the pellet was flicked to loosen cells. Cells were resuspended in an appropriate volume of freezing medium (DMEM containing 10% DMSO, 10% FBS, 100 U/ml Penicillin-Streptomycin) to achieve a concentration of 5×10^6 cells/mL. 1 mL aliquots of the cell suspension were transferred to freezing vials. The vials were put into an upright container in a −80° C. freezer overnight before transferring vials to liquid nitrogen for storage
Assay ready freeze-down (ARF, generation described separately) Calu-1 cells (ATCC HTB-54) were used. Compound plates were prepared by dispensing compounds dissolved in DMSO into the wells of a 384 well Corning® 3985 plate with an ECHO acoustic dispenser and compounds were tested in 10-point serial 3-fold dilution. […] To set up the assay, ARF vial(s) were thawed in a 37° C. water bath and were then resuspended into assay media (DMEM containing 2% FBS, 100 U/ml Penicillin-Streptomycin). Cells were counted using default parameters on ViCell and diluted to 20,000 cells/mL in assay media. RSV-A2-GFP virus was added to cells at 24,000 pfu/ml (MOI=1.2) and mixed by gentle inversion. 10 μL/well of 100% DMSO was dispensed as CellTiter-Glo (CTG) assay Max_E controls wells. The cells were dispensed at 50 μL/well using Bravo with 50 μL filtered tips into compound plates. Plates were covered with MicroClime lids, loaded with 7.5 mL of assay media to minimize evaporation, and were incubated at 37° C. and 5% CO2 for 96 hrs. Following incubation, distinct, GFP-expressing cells were counted using an Acumen imaging system with appropriate settings. A same-well CTG assay was performed by adding 10 μL/well reconstituted CellTiter-Glo reagent (Promega G7573) and plates were read on PerkinElmer Envision according to manufacturer's instructions. Raw data were loaded and analyzed in ActivityBase. Antiviral IC50 and cytotoxicity CC50 values were determined using a 4 parameter logistic fit based on the Levenberg-Marquardt algorithm. Model: 205-4 Parameter Logistic.

hMPV-GFP virus = assay: microbe, parasite or virus in culture; type: cell-based, Human Metapneumovirus; conditions: VERO cells, hMPV-GFP MOI=1.25, 48 hrs, GFP-expressing cells counted
Method: GFP expressing rgHMPV #3 p3 was generated in Dr. Buchholz's lab (Biacchesi S. et al., J Virol. 2007 June; 81(11): 6057-6067) and propagated in VERO cells (ATCC Cat #CCL-81) with a Multiplicity of Infection (MOI) of 0.1. Virus was harvested 4 days after infection by collecting cultured material and was freeze-thaw cycled in liquid nitrogen twice. Working virus stocks were generated from thawing frozen samples in 37° C. water bath, which were centrifuged at 218 g for 15 min at 4° C. 1/10 of 10×SPG (Biological Industries 06-3061-01-5A) were added and then mixed. The supernatant was aliquoted, frozen in liquid nitrogen, and then transferred to a −80° C. freezer for storage. Virus titer was determined by performing titration test in 96-well plates and calculate approximate virus titer using GFP event/well data.
Compound plates were prepared by dispensing compounds dissolved in DMSO into wells of a 384 well Corning 3985 polystyrene flat clear bottom optical imaging microplate (202.5 nL/well) using an ECHO acoustic dispenser. Each compound was tested in 10-point serial 3-fold dilution (typical final concentrations: 40,300 nM-2 nM). […] Continuous culture of VERO cells was maintained in complete culture media (OptiMEM supplemented with 2 mM GlutaMAX™ and 100 U/ml Penicillin-Streptomycin). To set up the assay, VERO cells were trypsinized with 0.25% Trypsin-EDTA until cells were dislodged, then cells were re-suspended with 1 mL FBS. Cells were spundown at 300 g for 5 minutes and cells were washed twice with culture media and counted using default parameters on ViCell. Cells were then diluted to 100,000 cells/mL (5,000 cells/50 μL) in complete culture media+TrypLE Select (80 μL/mL). hMPV-GFP virus was added to cells at 125,000 pfu/mL (MOI=1.25) and were mixed by gentle inversion. 10 μL/well of 100% DMSO was dispensed to CellTiter-Glo (CTG) assay Max_E controls wells. Cells were dispensed at 50 μL/well using Bravo and 50 μL filtered tips into compound plates. Plates were covered with MicroClime lids and loaded with 7.5 mL of assay media to minimize evaporation. Plates were lightly shaken for 10 minutes at room temperature and then incubated at 37° C. and 5% CO2 for 48 hrs. Following incubation, distinct GFP-expressing cells were counted using an Acumen imaging system with appropriate settings. A same-well CTG assay was performed by adding 10 μL/well reconstituted CellTiter-Glo reagent (Promega G7573) and plates were read on PerkinElmer Envision according to manufacturer's instructions. Raw data were loaded and analyzed in ActivityBase. Antiviral IC50 and cytotoxicity CC50 values were determined using a 4 parameter logistic fit based on the Levenberg-Marquardt algorithm. Model: 205-4 Parameter Logistic.

[1] = read-out: RSV EC50, Table I Summary of Activities for RSV
[2] = read-out: RSV EC50, Table II Summary of Activities for hMPV
[3] = Table I Summary of Activities for RSV, read-out: RSV EC50
[4] = Table II Summary of Activities for hMPV, read-out: RSV EC50
[5] = human respiratory syncytial virus, Calu-1, 96 h, read-out: RSV EC50, Table I Summary of Activities for RSV
[6] = Vero, 48 h, read-out: RSV EC50, Table II Summary of Activities for hMPV

Cn1nc(-c2cscn2)cc1C(=O)N1C[C@@H]2[C@H](C1)[C@H]2Oc1cc(C2(C)CCN2)cc(-c2ccc(F)cc2)n1 (single isomer, unassigned; enantiomer 2) [Example 55B] showed a pEC50 (RSV-A2-GFP virus; [1]) of over 8.00 and a pEC50 (hMPV-GFP virus; [2]) of under 7.00.
Compound Cn1nc(-c2cscn2)cc1C(=O)N1C[C@@H]2[C@H](C1)[C@H]2Oc1cc(C2(C)CCCN2)cc(-c2ccc(F)cc2)n1 (single isomer, unassigned; enantiomer 2) [Example 56B] has a pEC50 (RSV-A2-GFP virus; [1]) of over 8.00 and a pEC50 (hMPV-GFP virus; [2]) of under 7.00.
With Cn1nc(-c2cscn2)cc1C(=O)N1C[C@@H]2C(Oc3cc(C(C)(N)CO)cc(-c4ccc(F)cc4)n3)[C@@H]2C1 (single isomer, unassigned; enantiomer 2) [Example 57B] the pEC50 (RSV-A2-GFP virus; [3]) was over 8.00 and the pEC50 (hMPV-GFP virus; [4]) was under 7.00.
Compound Cn1nc(-c2ncco2)cc1C(=O)N1C[C@@H]2C(Oc3cc(C(C)(N)CO)cc(-c4ccc(F)cc4)n3)[C@@H]2C1 (single isomer, unassigned; enantiomer 2) [Example 58B] has a pEC50 (RSV-A2-GFP virus; [3]) of over 8.00 and a pEC50 (hMPV-GFP virus; [4]) of under 7.00.
Work on CC(N)c1cc(O[C@H]2[C@@H]3CN(C(=O)c4cc(-c5cscn5)nn4C)C[C@@H]32)nc(-c2ccc(F)cc2)c1 (single isomer, unassigned; enantiomer 2) [Example 61B] yielded a pEC50 (RSV-A2-GFP virus; [1]) of over 8.00 and a pEC50 (hMPV-GFP virus; [2]) of under 7.00.
Work on CC(N)c1cc(O[C@H]2[C@@H]3CN(C(=O)c4cc(-c5ccon5)nn4C)C[C@@H]32)nc(-c2ccc(F)cc2)c1 (single isomer, unassigned; enantiomer 2) [Example 62B] yielded a pEC50 (RSV-A2-GFP virus; [1]) of over 8.00 and a pEC50 (hMPV-GFP virus; [2]) of under 7.00.
Cn1nc(-c2cscn2)cc1C(=O)N1C[C@@H]2[C@H](C1)[C@H]2Oc1cc(C(C)(C)N)cc(C2CCC(C)(C)CC2O)n1 (single isomer, unassigned; enantiomer 2) [Example 66B] was tested, and the pEC50 (RSV-A2-GFP virus; [1]) was 7.00 to 8.00 and the pEC50 (hMPV-GFP virus; [2]) was under 7.00.
Work on Cn1nc(-c2cscn2)cc1C(=O)N1C[C@@H]2[C@H](C1)[C@H]2Oc1cc(C(C)(C)N)cc(C2CCC(C)(C)CC2O)n1 (single isomer, unassigned; enantiomer 3) [Example 66C] yielded a pEC50 (RSV-A2-GFP virus; [1]) of 7.00 to 8.00 and a pEC50 (hMPV-GFP virus; [2]) of under 7.00.
Work on Cn1nc(-c2cscn2)cc1C(=O)N1C[C@@H]2[C@H](C1)[C@H]2Oc1cc(C(C)(C)N)cc(C2CCC(C)(C)CC2O)n1 (single isomer, unassigned; enantiomer 4) [Example 66D] yielded a pEC50 (RSV-A2-GFP virus; [1]) of 7.00 to 8.00 and a pEC50 (hMPV-GFP virus; [2]) of under 7.00.
Work on Cn1nc(-c2cscn2)cc1C(=O)N1C[C@@H]2[C@H](C1)[C@H]2Oc1cc(C(C)(N)C(N)=O)cc(-c2ccc(F)cc2)n1 (single isomer, unassigned; ent-2) [Example 49A] yielded a pEC50 (RSV-A2-GFP virus; [5]) of over 8.00 and a pEC50 (hMPV-GFP virus; [6]) of under 7.00.
With Cn1nc(-c2cscn2)cc1C(=O)N1C[C@@H]2[C@H](C1)[C@H]2Oc1cc(C(C)(N)C(N)=O)cc(-c2ccc(F)cc2)n1 (single isomer, unassigned; ent-2) [Example 49B] the pEC50 (RSV-A2-GFP virus; [1]) was over 8.00 and the pEC50 (hMPV-GFP virus; [2]) was under 7.00.
With Cn1nc(-c2cscn2)cc1C(=O)N1C[C@@H]2[C@H](C1)[C@H]2Oc1cc(C2(C)CNC2=O)cc(-c2ccc(F)cc2)n1 (single isomer, unassigned; ent-3) [Example 50A] the pEC50 (RSV-A2-GFP virus; [5]) was over 8.00 and the pEC50 (hMPV-GFP virus; [6]) was under 7.00.
Cn1nc(-c2cscn2)cc1C(=O)N1C[C@@H]2[C@H](C1)[C@H]2Oc1cc(C2(C)CNC2=O)cc(-c2ccc(F)cc2)n1 (single isomer, unassigned; ent-3) [Example 50B] gave a pEC50 (RSV-A2-GFP virus; [1]) of over 8.00 and a pEC50 (hMPV-GFP virus; [2]) of under 7.00.
For Cn1nc(-c2cscn2)cc1C(=O)N1C[C@@H]2[C@H](C1)[C@H]2Oc1cc(C2(C)CCNC2=O)cc(-c2ccc(F)cc2)n1 (single isomer, unassigned; ent-3) [Example 51A], the pEC50 (RSV-A2-GFP virus; [5]) was over 8.00 and the pEC50 (hMPV-GFP virus; [6]) was under 7.00.
Compound Cn1nc(-c2cscn2)cc1C(=O)N1C[C@@H]2[C@H](C1)[C@H]2Oc1cc(C2(C)CCNC2=O)cc(-c2ccc(F)cc2)n1 (single isomer, unassigned; ent-3) [Example 51B] has a pEC50 (RSV-A2-GFP virus; [1]) of over 8.00 and a pEC50 (hMPV-GFP virus; [2]) of under 7.00.
Compound Cc1nc(-c2ncco2)sc1C(=O)N1C[C@@H]2[C@H](C1)[C@H]2Oc1cc(C(C)(C)N)cc(-c2ccc(F)cc2)n1 [Example 3, ((1R,5S,6s)-6-((4-(2-aminopropan-2-yl)-6-(4-fluorophenyl)pyridin-2-yl)oxy)-3-azabicyclo[3.1.0]hexan-3-yl)(4-methyl-2-(oxazol-2-yl)thiazol-5-yl)methanone] has a pEC50 (RSV-A2-GFP virus; [5]) of over 8.00 and a pEC50 (hMPV-GFP virus; [6]) of 7.00 to 8.00.
Compound Cc1cnc(-c2nc(C)c(C(=O)N3C[C@@H]4[C@H](C3)[C@H]4Oc3cc(C(C)(C)N)cc(-c4ccc(F)cc4)n3)s2)o1 [Example 4, ((1R,5S,6s)-6-((4-(2-aminopropan-2-yl)-6-(4-fluorophenyl)pyridin-2-yl)oxy)-3-azabicyclo[3.1.0]hexan-3-yl)(4-methyl-2-(5-methyloxazol-2-yl)thiazol-5-yl)methanone] has a pEC50 (RSV-A2-GFP virus; [3]) of over 8.00 and a pEC50 (hMPV-GFP virus; [4]) of 7.00 to 8.00.
